Assay results reported in patent publication US20240351967A1, “METHODS OF PREPARATION OF ZINGERONE, COMPOSITIONS COMPRISING ZINGERONE, AND USES THEREFOR” (Evithe Limited, priority 2021, published 2024).
Values after ≈ are worked out from the molar mass of the structure shown. Values joined by “and” are separate entries in the source; they are usually repeats but may differ in a detail not shown here. Equal entries are not always repeated. Where two headings read alike, the source gives them in different places.

Tests used:
Staphylococcus aureus = experiment: Chequerboard analysis / MIC against Staphylococcus aureus (MRSA cells); type: cell-based
Protocol: Chequerboard analysis was used to determine whether compounds could be combined to decrease the MIC for Staphylococcus aureus, as compared to each individual compound. In the present experiments, combinations of zingerone plus gentamicin, zingerone plus vancomycin, and zingerone plus cefotaxime were tested. For this testing, 96 well plates were inoculated Staphylococcus aureus, and then incubated with the test compounds for 24 hours at 37° C. For zingerone, additions were made at […], 12.5, and 25 mg/ml. For gentamicin, additions were made at 0, 4, 8, 16, 32, 64, 128, and 256 μg/ml. For vancomycin, additions were made at 0, 4, 8, 16, 32, 64, 128, and 256 μg/ml. For cefotaxime, additions were made at 0, 8, 16, 32, 64, 128, 256, and 512 μg/ml. MRSA cells (methicillin-resistant Staphylococcus aureus) were introduced in Mueller Hinton media with 2% NaCl. 10^8 cells per ml were utilised. The FICI index was used to quantify the interaction of the compounds interact employing the following equation: FICI=(MICA^combi/MICA^alone)+ (MICB^combi/MICB^alone). A FICI of ≤0.5 was designated as synergy, and a FICI of >4.0 was defined as antagonism. A FICI of 0.5 to 1.0 was deemed as a significant improvement although not synergistic.

[1] = cited from earlier work
[2] = EFSA 2016; 14 (8): 4557; cited from earlier work
liver inflammation = conditions: peritonitis mouse model; cited from earlier work
Pseudomonas aeruginosa = conditions: cited from earlier work
[3] = individual compound, 24 hours at 37° C., MRSA in Mueller Hinton media with 2% NaCl

Question: With CO/N=C(\C(=O)N[C@@H]1C(=O)N2C(C(=O)O)=C(COC(C)=O)CS[C@H]12)c1csc(N)n1 [Cefotaxime, reference compound] as the compound, how does the MIC (Staphylococcus aureus; Staphylococcus aureus, individual compound, 24 hours at 37° C., MRSA in Mueller Hinton media with 2% NaCl, read-out: MIC) read?
Answer: > 512 µg/mL

Question: Which MIC (Staphylococcus aureus; Staphylococcus aureus, MRSA, 24 h) does the source give for CN[C@H](CC(C)C)C(=O)N[C@H]1C(=O)N[C@@H](CC(N)=O)C(=O)N[C@H]2C(=O)N[C@H]3C(=O)N[C@H](C(=O)N[C@H](C(=O)O)c4cc(O)cc(O)c4-c4cc3ccc4O)[C@H](O)c3ccc(c(Cl)c3)Oc3cc2cc(c3O[C@@H]2O[C@H](CO)[C@@H](O)[C@H](O)[C@H]2O[C@H]2C[C@](C)(N)[C@H](O)[C@H](C)O2)Oc2ccc(cc2Cl)[C@H]1O [Vancomycin, reference compound] here?
Answer: 8 µg/mL

Question: With COc1cc(CCC(C)=O)ccc1O [Zingerone] as the compound, how does the MIC (Staphylococcus aureus; [3]) read?
Answer: 25 mg/g

Question: What about the MIC (Staphylococcus aureus; zingerone in combination with cefotaxime) of the same compound?
Answer: 25 mg/g

Question: What about the MIC (Staphylococcus aureus; zingerone in combination with gentamicin) of the same compound?
Answer: 6.25 mg/g

Question: What about the MIC (Staphylococcus aureus; zingerone in combination with vancomycin) of the same compound?
Answer: 12.5 mg/g

Question: And the “Log P” value ([1]; FoodB compounds database)?
Answer: 2.02 and 1.92

Question: What about the water solubility ([1]; FoodB compounds database) of the same compound?
Answer: 570 µg/mL (≈ 2930 µM)

Question: And the “solubility (in words)” value ([1]; reported)?
Answer: sparingly soluble in water

Question: And the “No Observed Adverse Effects (NOAEL) dose” value [2]?
Answer: 128 mg/kg/day

Question: And the “effect on liver inflammation” value (liver inflammation)?
Answer: anti-inflammatory effect

Question: What about the “effect on susceptibility of cells to antibiotics” value (Pseudomonas aeruginosa) of the same compound?
Answer: enhance the susceptibility

Question: What does the source list for Gentamicin [reference compound]?
Answer: MIC (Staphylococcus aureus; gentamicin in combination with zingerone): 4 µg/mL; MIC (Staphylococcus aureus; [3]): 16 µg/mL
